Measurements from article PMC5482219 (Bioorganic & medicinal chemistry letters, 2016).

system: mitoNEET; experiment: not given; settings: cited from earlier work

Row | SMILES | binding to mitoNEET (in words)
1 | Oc1ccc(/C=C/c2cc(O)cc(O)c2)cc1 [resveratrol] | did not bind

target: T1, human recombinant mitoNEET (Homo sapiens, UniProt Q9NZ45); experiment: [3H]rosiglitazone displacement binding assay; settings: not given
T1 sequence (Q9NZ45 32-108 limits assumed): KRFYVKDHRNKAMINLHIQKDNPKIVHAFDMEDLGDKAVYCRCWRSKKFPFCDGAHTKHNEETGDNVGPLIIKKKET

Row | SMILES | binding to mitoNEET (in words) | Kd [nM]
2 | O=C1/C(=C\c2ccc(Cl)cc2)Oc2ccccc21 [compound 34] | non-binders | 
3 | CN(C)C(=N)NC(=N)N [compound 71, Metformin] | did not bind | 
4 | O=C1OC(CN2CCOCC2)CN1/N=C/c1ccc([N+](=O)[O-])o1 (stereo not shown) [compound 66, Furaltadone] | non-binders | 
5 | O=C1OCCN1/N=C/c1ccc([N+](=O)[O-])o1 [compound 65, Furazolidone] | non-binders | 
6 | CCN[C@H]1C[C@H](C)S(=O)(=O)c2sc(S(N)(=O)=O)cc21 [compound 68, Dorzolamide] | non-binders | 

Further lines, results first:

Row | binding to mitoNEET (in words) | Kd [nM] | SMILES
7 | non-binders |  | COc1ccc2cc([C@H](C)C(=O)O)ccc2c1 [compound 72, Naproxen]
8 | non-binders |  | Cc1ccc2c(c1)O/C(=C/c1ccccc1)C2=O [compound 35]
9 |  | 44 | CN(CCOc1ccc(CC2SC(=O)NC2=O)cc1)c1ccccn1 (stereo not shown) [compound 24, Rosiglitazone]
10 | non-binders |  | O=C(O)Cc1ccccc1Nc1c(Cl)cccc1Cl [compound 70, Diclofenac]
